Here are results for 26 compounds from patent US10035790B2, “RORγ modulators” (BRISTOL-MYERS SQUIBB COMPANY, priority 2012, dated 2018).

The structures appear in SMILES notation.

The target of the first assay is T1, ligand binding domain of human RORγ (A262-S507) (Homo sapiens, UniProt P51449).
T1 construct: made in house; host or cells: E. coli
T1 sequence (P51449 262-507): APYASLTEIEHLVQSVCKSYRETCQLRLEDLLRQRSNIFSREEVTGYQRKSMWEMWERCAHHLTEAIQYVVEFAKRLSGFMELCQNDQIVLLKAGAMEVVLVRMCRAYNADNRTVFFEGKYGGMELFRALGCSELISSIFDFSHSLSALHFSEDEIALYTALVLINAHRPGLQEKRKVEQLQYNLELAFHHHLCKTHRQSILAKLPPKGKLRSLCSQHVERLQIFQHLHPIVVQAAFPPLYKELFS
The assay can be described thus: General RORγ SPA binding assay (competition with [3H]25-hydroxycholesterol). The settings on record: IC50, RORγ SPA binding assay, inhibition of [3H]25-hydroxycholesterol binding. The method in brief: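 N-terminally His-tagged protein was expressed in E. coli and nickel-purified. Then 50 nM protein was preincubated with compound for 15 min at room temperature in PBS with 0.5% fatty acid free BSA, followed by radioligand for 15 min and copper His-tag SPA beads for 30 min. IC50 came from percent inhibition of binding.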
The IC50 is the concentration at which inhibition is half-maximal. `Cc1nc(C)c(C(=O)NCc2ccnc(C(F)(F)F)n2)c(C2CCN(C(=O)Oc3ccccc3)CC2)n1` [Compound A125, Phenyl 4-{2,6-dimethyl-5-[({[2-(trifluoromethyl)pyrimidin-4-yl]methyl}amino)carbonyl]pyrimidin-4-yl}piperidine-1-carboxylate]: the IC50 amounted to 11.6 nM.

The same assay, now with this note: RORγ SPA binding assay, inhibition of [3H]25-hydroxycholesterol binding; read-out: IC50.
On to `O=C(NCc1ccc(Cl)c(Cl)c1)c1cncnc1C1CCN(C(=O)Cc2c(Cl)cccc2Cl)CC1` [Compound A65, N-(3,4-dichlorobenzyl)-4-(1-(2-(2,6-dichlorophenyl)acetyl)piperidin-4-yl)pyrimidine-5-carboxamide], for which the IC50 is 69 nM.
As to `COc1cc(CNC(=O)c2cnc(C)nc2C2CCN(C(=O)Cc3c(F)cccc3F)CC2)cc(Cl)n1` [Compound A52, N-((2-chloro-6-methoxypyridin-4-yl)methyl)-4-(1-(2-(2,6-difluorophenyl)acetyl)piperidin-4-yl)-2-methylpyrimidine-5-carboxamide], the half-inhibitory concentration (IC50) is 7.5 nM.
Consider `Cc1nc(N)nc(C2CCN(C(=O)Nc3c(F)cccc3F)CC2)c1C(O)COc1ccnc(C(F)(F)F)n1` (centres unmarked) [Compound N7, 4-[2-amino-5-(1-hydroxy-2-{[2-(trifluoromethyl)pyrimidin-4-yl]oxy}ethyl)-6-methylpyrimidin-4-yl]-N-(2,6-difluorophenyl)piperidine-1-carboxamide], for which the half-maximal inhibitory concentration (IC50) came to 16.9 nM.
Same read-out and setting: the value for `C/C(=N\Oc1cccc(Cl)c1)c1cnc(C)nc1C1CCN(C(=O)Cc2c(F)cccc2F)CC1` [Compound B5, (E)-1-(4-(5-(1-((3-chlorophenoxy)imino)ethyl)-2-methylpyrimidin-4-yl)piperidin-1-yl)-2-(2,6-difluorophenyl)ethanone] was 2.5 nM; that for `Cc1ncc(/C(=N/Oc2ccnc(C(F)(F)F)c2)C(F)F)c(C2CCN(C(=O)Cc3c(F)cccc3F)CC2)n1` [Compound B32, (1Z)-1-(4-{1-[(2,6-Difluorophenyl)acetyl]piperidin-4-yl}-2-methylpyrimidin-5-yl)-2,2-difluoroethanone O-[2-(trifluoromethyl)pyridin-4-yl]oxime] was 15.3 nM; that for `CNc1ncc(C(=O)NCc2cccc(Cl)c2)c(C2CCN(C(=O)Cc3c(F)cccc3F)CC2)n1` [Compound A90, N-(3-chlorobenzyl)-4-(1-(2-(2,6-difluorophenyl)acetyl)piperidin-4-yl)-2-(methylamino)pyrimidine-5-carboxamide] was 6.3 nM.
Consider `Cc1nc(C)c(C(O)COc2ccnc(C(F)(F)F)n2)c(C2CCN(C(=O)Nc3c(F)cccc3F)CC2)n1` (centres unmarked) [Compound N5, N-(2,6-Difluorophenyl)-4-[5-(1-hydroxy-2-{[2-(trifluoromethyl)pyrimidin-4-yl]oxy}ethyl)-2,6-dimethylpyrimidin-4-yl]piperidine-1-carboxamide], for which the IC50 came out at 8.4 nM.
In the case of `Cc1ncc(C(CF)=NOc2ccnc(C(F)(F)F)c2)c(C2CCN(C(=O)Cc3c(F)cccc3F)CC2)n1` [Compound B24, (1Z)-1-(4-{1-[(2,6-Difluorophenyl)acetyl]piperidin-4-yl}-2-methylpyrimidin-5-yl)-2-fluoroethanone 0-[2-(trifluoromethyl)pyridin-4-yl]oxime], the IC50 amounted to 8.7 nM.
With `Cc1cc(C)cc(CNC(=O)c2cnc(C)nc2C2CCN(C(=O)Cc3ccccc3OC(F)(F)F)CC2)c1` [Compound A9, N-(3,5-dimethylbenzyl)-2-methyl-4-(1-(2-(2-(trifluoromethoxy)phenyl)acetyl)piperidin-4-yl)pyrimidine-5-carboxamide], the IC50 turned out to be 31.6 nM.
Same read-out and setting: the value for `CC(C)c1ncc(C(=O)NCc2ccc(Cl)c(Cl)c2)c(C2CCN(C(=O)Cc3c(F)cccc3F)CC2)n1` [Compound A28, N-(3,4-dichlorobenzyl)-4-(1-(2-(2,6-difluorophenyl)acetyl)piperidin-4-yl)-2-isopropylpyrimidine-5-carboxamide] was 1030 nM.
`Cc1cc(C)cc(CNC(=O)c2cnc(C)nc2C2CCN(C(=O)Cc3ccc(F)c(F)c3)CC2)c1` [Compound A34, 4-(1-(2-(3,4-difluorophenyl)acetyl)piperidin-4-yl)-N-(3,5-dimethylbenzyl)-2-methylpyrimidine-5-carboxamide]: the IC50 was determined as 2690 nM.
Take `CSc1ncc(/C(C)=N/Oc2ccnc(Cl)c2)c(C2CCN(C(=O)Nc3c(F)cccc3F)CC2)n1` [Compound B58, 4-[5-{(1E)-N-[(2-Chloropyridin-4-yl)oxy]ethanimidoyl}-2-(methylthio)pyrimidin-4-yl]-N-(2,6-difluorophenyl)piperidine-1-carboxamide]: the concentration for half-maximal inhibition (IC50) stood at 4090 nM.
The same measure, in the same setting: then `Cc1ncc(C(C)(O)CNc2cccc(C(F)(F)F)c2)c(C2CCN(C(=O)Cc3c(F)cccc3F)CC2)n1` (centres unmarked) [Compound D4, 2-(2,6-difluorophenyl)-1-(4-(5-(2-hydroxy-1-((3-(trifluoromethyl)phenyl)amino)propan-2-yl)-2-methylpyrimidin-4-yl)piperidin-1-yl)ethanone], with 6.1 nM; and `Cc1ncc(C(F)(F)CNc2nccc(C(F)(F)F)n2)c(C2CCN(C(=O)Nc3c(F)cccc3F)CC2)n1` [Compound N20, N-(2,6-Difluorophenyl)-4-[5-(1,1-difluoro-2-{[4-(trifluoromethyl)pyrimidin-2-yl]amino}ethyl)-2-methylpyrimidin-4-yl]piperidine-1-carboxamide], with 21.2 nM; and `Nc1ncc(C(O)COc2cccc(C(F)(F)F)n2)c(C2CCN(C(=O)Nc3c(F)cccc3F)CC2)n1` (centres unmarked) [Compound N3, 4-[2-Amino-5-(1-hydroxy-2-{[6-(trifluoromethyl)pyridin-2-yl]oxy}ethyl)pyrimidin-4-yl]-N-(2,6-difluorophenyl)piperidine-1-carboxamide], with 2.3 nM.
Consider `CC(O)(COc1ccnc(C(F)(F)F)n1)c1cnc(NCC(F)F)nc1C1CCN(C(=O)Nc2c(F)cccc2F)CC1` (centres unmarked) [Compound D39, 4-{2-[(2,2-Difluoroethyl)amino]-5-(1-hydroxy-1-methyl-2-{[2-(trifluoromethyl)pyrimidin-4-yl]oxy}ethyl)pyrimidin-4-yl}-N-(2,6-difluorophenyl)piperidine-1-carboxamide], for which the concentration for half-maximal inhibition (IC50) is 5.1 nM.
With `C/C(=N\Oc1ccnc(C(F)(F)F)n1)c1cnc(N)nc1C1CCN(C(=O)Nc2c(F)cccc2F)CC1` [Compound B54, 4-{2-Amino-5-[(1E)-N-{[2-(trifluoromethyl)pyrimidin-4-yl]oxy}ethanimidoyl]pyrimidin-4-yl}-N-(2,6-difluorophenyl)piperidine-1-carboxamide], the IC50 was found to be 168 nM.
In the case of `C/C(=N\Oc1ccnc(C(F)(F)F)c1)c1cnc(C)nc1C1CCN(C(=O)Cc2c(F)cccc2F)CC1` [Compound B14, (E)-2-(2,6-difluorophenyl)-1-(4-(2-methyl-5-(1-(((2-(trifluoromethyl)pyridin-4-yl)oxy)imino)ethyl)pyrimidin-4-yl)piperidin-1-yl)ethanone], the IC50 came out at 4.8 nM.
The same measure, in the same setting: then `Cc1cc(C)cc(COC(C)(COC[C@H](O)CO)c2cnc(C)nc2C2CCN(C(=O)Cc3c(F)cccc3F)CC2)c1` (mixture of isomers) [Compound E9, 2-(2,6-Difluorophenyl)-1-(4-(5-(1-((R)-2,3-dihydroxypropoxy)-2-(3,5-dimethylbenzyloxy)propan-2-yl)-2-methylpyrimidin-4-yl)piperidin-1-yl)ethanone], with 6.2 nM.
For the compound `Nc1ncc(C(=O)COc2ccnc(C(F)(F)F)n2)c(C2CCN(C(=O)c3c(F)cccc3F)CC2)n1` [Compound M13, 1-(2-Amino-4-{1-[(2,6-difluorophenyl)carbonyl]piperidin-4-yl}pyrimidin-5-yl)-2-{[2-(trifluoromethyl)pyrimidin-4-yl]oxy}ethanone], the IC50 came to 344 nM.
The same measure, in the same setting: then `C/C(=N/Oc1cc(C)cc(C)c1)c1cnc(C)nc1C1CCN(C(=O)Cc2c(F)cccc2F)CC1` [Compound B10, (Z)-2-(2,6-difluorophenyl)-1-(4-(5-(1-((3,5-dimethylphenoxy)imino)ethyl)-2-methylpyrimidin-4-yl)piperidin-1-yl)ethanone], with 1670 nM; and `CCn1c(C)nc(C2CCN(C(=O)Cc3c(F)cccc3F)CC2)c(C(=O)NCc2cccc(C(F)(F)F)n2)c1=O` [Compound I8, 4-(1-(2-(2,6-Difluorophenyl)acetyl)piperidin-4-yl)-1-ethyl-2-methyl-6-oxo-N-((6-(trifluoromethyl)pyridin-2-yl)methyl)-1,6-dihydropyrimidine-5-carboxamide], with 2290 nM.
Same read-out and setting: then `Cc1ccnc(NCC(C)(O)c2cnc(C)nc2C2CCN(C(=O)Cc3c(F)cccc3F)CC2)c1` (centres unmarked) [Compound D9, 2-(2,6-difluorophenyl)-1-(4-(5-(2-hydroxy-1-((4-methylpyridin-2-yl)amino)propan-2-yl)-2-methylpyrimidin-4-yl)piperidin-1-yl)ethanone], with 118 nM; and `Cc1cc(C)cc(CNC(=O)c2cnc(C)nc2C2CCN(CCc3c(F)cccc3F)CC2)c1` [Compound A99, 4-(1-(2,6-difluorophenethyl)piperidin-4-yl)-N-(3,5-dimethylbenzyl)-2-methylpyrimidine-5-carboxamide], with 58 nM.
As for `Cc1cc(C)cc(CN(C)C(=O)c2cnc(C)nc2C2CCN(C(=O)Cc3c(F)cccc3F)CC2)c1` [Compound A113, 4-(1-(2-(2,6-Difluorophenyl)acetyl)piperidin-4-yl)-N-(3,5-dimethylbenzyl)-N,2-dimethylpyrimidine-5-carboxamide], the IC50 turned out to be 338 nM.
